These results are taken from US9708247B2, “Modulators of the eIF2alpha pathway” (The Regents of the University of California, priority 2013, dated 2017).

A value given as a limit tells only on which side of the number the result lay.

In one test the test system is ATF4 luciferase reporter. The test is described as follows: ATF4 luciferase reporter assay (Cell-luc) in HEK293T cells. In kind it is cell-based, human. As to conditions: ATF4 luciferase reporter, HEK293T cells; read-out: IC50 (nM) Cell-luc. The source says: FIGS. 1A-1C. […]
To identify inhibitors of PERK signaling, we engineered a reporter that allows monitoring of PERK activation in living cells. To this end, we constructed a retroviral vector containing the open-reading frame of firefly luciferase fused to the 5′UTR of ATF4 mRNA (FIG. 1A), which contains two short open-reading frames (uORFs) that control ATF4 translation in a stress-dependent manner. After infection, we established a HEK293T cell line harboring the stably integrated reporter. […] This format was used to screen 106,281 compounds covering a wide chemical space. We identified 460 hits (0.43%) (FIG. 1C), which were further validated in an 8-point dose-response assay using the same reporter. We further triaged the compounds by discarding inhibitors that also affected the IRE1 branch of the UPR using an XBP1-luciferase splicing reporter. […] We next used an orthogonal secondary screen that employed a different reporter (bi-cistronic ATF4-dGFPIRES-mCherry) stably integrated into a different cell line (U20S cells). The read-out of this latter screen was microscopy-based, which allowed us to simultaneously assess acute toxicity by cell counting, further reducing the number of viable hits to 77. As a tertiary screen, we tested compounds for their ability to inhibit ER stress-elicited induction of endogenous ATF4 by Western blot analysis. Twenty-eight compounds passed this test and were analyzed further.
ATF4 reporters were constructed by fusing the human full-length ATF4 5′-UTR (NCBI Accession BC022088.2) in front of the firefly luciferase (FLuc) or a destabilized eGFP (dEGFP) coding sequences lacking the initiator methionine.
The ATF4-FLuc reporter was generated by cloning a PCR-product containing the ATF4 full-length 5′-UTR (from +1 position a the transcription start site down to one nucleotide after the terminator codon of the second uORF) flanked by KpnI/XhoI and BglII sites at the 5′ and 3′ ends, respectively, into the KpnI-BglII sites of pCAX-F-XBP1-Luc. The resulting construct, pCAX-ATF4-FLuc, was then digested with BamHI, blunted with T4 DNA polymerase, and then digested with XhoI. The resulting fragment was then subcloned into the retroviral expression vector pLPCX (Clontech) after digesting it with HindIII, blunting with T4 DNA polymerase and then digesting with XhoI to generate pLPCX-ATF4-FLuc (DAA-312). DAA-312 was used to produce recombinant retroviruses using standard methods and the resulting viral supernatant was used to transduce HEK293T cells, which were then subsequently selected with puromycin to generate a stable cell line employed in the primary screen.
HEK293T cells carrying the ATF4 luciferase reporter were plated on poly-lysine coated 384 well plates (Greiner) at 30,000 cells per well. […] Luminescence was measured using One Glo (Promega) as specified by the manufacturer. […] Thus, these were considered unique to the PERK branch and were cherry-picked for further analysis.
As for `O=C(COc1ccc(Cl)cc1)N[C@H]1CC[C@H](NC(=O)COc2ccc(Cl)c([N+](=O)[O-])c2)CC1` [compound 874804], the half-maximal inhibitory concentration (IC50) came to 3 nM. Turning to `C#CCN(C(=O)COc1ccc(Cl)cc1)[C@H]1CC[C@H](NC(=O)COc2ccc(Cl)cc2)CC1` [755854.2], the IC50 is 440 nM. As for `N=C(COc1ccc(Cl)cc1)N[C@H]1CC[C@H](NC(=O)COc2ccc(Cl)cc2)CC1` [757264.2], the 50% inhibitory concentration (IC50) came out at 34 nM.

Take `N=C(COc1ccc(Cl)cc1)N[C@H]1CC[C@H](NC(=O)COc2ccc(Cl)cc2)CC1` [757264.1]: the IC50 turned out to be 100 nM. On the same count and under the same terms, then `N=C(COc1ccc(Cl)c(F)c1)N[C@H]1CC[C@H](NC(=O)COc2ccc(Cl)c(F)c2)CC1` [compound 957915], with 344 nM; and `C#Cc1ccc(OCC(=O)N[C@H]2CC[C@H](NC(=O)COc3ccc(N=[N+]=[N-])cc3)CC2)cc1` [compound 957866], with 232 nM; and `N=C(COc1ccc(Cl)cc1)N[C@H]1CC[C@H](NC(=O)COc2ccc(Cl)cc2)CC1` [757264-L3], with 60 nM. On to `O=C(COc1ccc(Cl)cc1)N[C@H]1CC[C@H](NC(=O)COc2ccc(Cl)cc2[N+](=O)[O-])CC1` [compound 843987], for which the IC50 turned out to be 75 nM.

The test is the same for the next values; noted with them: Homo sapiens, HEK-293T, ATF4 luciferase reporter, HEK293T cells; read-out: IC50 (nM) Cell-luc.
Regarding `O=C(COc1ccc(Cl)cc1)N[C@H]1CC[C@@H](NC(=O)COc2ccc(Cl)cc2Cl)CC1` [compound 754124], the 50% inhibitory concentration (IC50) was over 10000 nM.

As to `N#Cc1ccc(OCC(=O)N[C@H]2CC[C@H](NC(=O)COc3ccc(C#N)cc3)CC2)cc1` [compound 757095], the IC50 was over 10000 nM.

In the case of `O=C(COc1ccc(O)cc1)N[C@H]1CC[C@H](NC(=O)COc2ccc(Cl)cc2)CC1` [compound 751597], the IC50 is over 10000 nM. The same measure, in the same setting: under `CC(=O)c1cc(Cl)ccc1OCC(=O)N[C@H]1CC[C@H](NC(=O)COc2ccc(Cl)cc2)CC1` [compound 873972] stands over 10000 nM. The same measure, in the same setting: then `O=C(COc1ccc(Cl)cc1)N[C@H]1CC[C@H](NC(=O)COc2ccc(Cl)c(I)c2)CC1` [compound 914582], with 5.2 nM. Still for that read-out and setting: then `C[Si](C)(C)C#Cc1ccc(OCC(=O)N[C@H]2CC[C@H](NC(=O)COc3ccc(Cl)cc3)CC2)cc1` [compound 916348], with 160 nM; and `Cc1cc(OCC(=O)N[C@H]2CC[C@H](NC(=O)COc3ccc(Cl)c(C)c3)CC2)ccc1Cl` [compound 957886], with 3 nM.

In the case of `O=C(COc1ccc(Cl)cc1)N[C@H]1CC[C@H](NC(=O)CSc2ccc(F)cc2)CC1` [compound 811770], the half-inhibitory concentration (IC50) worked out at 900 nM. As to `O=C(CCc1ccc(Cl)cc1)N[C@H]1CC[C@H](NC(=O)CCc2ccc(Cl)cc2)CC1` [compound 754125], the half-maximal inhibitory concentration (IC50) is over 10000 nM.

As for `O=C(COc1ccc(Cl)cc1)N[C@H]1CC[C@H](NC(=O)COc2ccc(C(F)(F)F)cc2)CC1` [compound 757258], the IC50 came to 10 nM. As to `O=C(COc1ccc(Cl)c(Cl)c1)N[C@H]1CC[C@H](NC(=O)COc2ccc(Cl)c(Cl)c2)CC1` [compound 957885], the IC50 is 0.8 nM. As for `O=C(CNc1ccc(Cl)cc1)N[C@H]1CC[C@H](NC(=O)COc2ccc(Cl)cc2)CC1` [compound 835089], the IC50 was determined as 700 nM.

Regarding `CC(=O)c1cccc(OCC(=O)N[C@H]2CC[C@H](NC(=O)COc3ccc(Cl)cc3)CC2)c1` [compound 843984], the IC50 turned out to be 1000 nM. The same measure, in the same setting: then `O=C(COc1ccc(Cl)cc1)N[C@H]1CC[C@H](NC(=O)COc2cc(F)cc(F)c2)CC1` [compound 912564], with 220 nM; and `O=C(COc1ccc(Cl)cc1)N[C@H]1CC[C@H](NCCOc2ccc(Cl)cc2)CC1` [compound 835195], with 170 nM; and `O=C(COc1ccc(Cl)cc1)N[C@H]1CC[C@H](NC(=O)CSc2ccc(Cl)cc2)CC1` [compound 757261], with over 10000 nM. As for `O=C(COc1ccc(Cl)cc1)N[C@H]1CC[C@H](NC(=O)CSc2ccccc2)CC1` [compound 811769], the IC50 was over 10000 nM. As to `C[Si](C)(C)C#Cc1ccc(OCC(=O)N[C@H]2CC[C@H](NC(=O)COc3ccc(C#C[Si](C)(C)C)cc3)CC2)cc1` [compound 916785], the IC50 is over 10000 nM. Regarding `O=C(NC[C@H]1CC[C@H](CNC(=O)Oc2ccc(Cl)cc2)CC1)Oc1ccc(Cl)cc1` [compound 913815], the 50% inhibitory concentration (IC50) is over 10000 nM. For `N=C(COc1ccc(Cl)cc1)N[C@H]1CC[C@H](N(Cc2cn(CCOCCOCCOCCNC(=O)CCCC[C@@H]3SCC4NC(=O)NC43)nn2)C(=O)COc2ccc(Cl)cc2)CC1` (stereo partly shown) [compound 835197], the 50% inhibitory concentration (IC50) is over 10000 nM. For `O=C(COc1ccc(Cl)cc1)N[C@H]1CC[C@H](NC(=O)COc2cccc(F)c2F)CC1` [compound 912563], the IC50 amounted to 334 nM. For the compound `O=C(COc1ccc(Cl)cc1)N[C@H]1CC[C@H](NC(=O)COc2ccc(OCc3ccccc3)cc2)CC1` [compound 751592], the concentration for half-maximal inhibition (IC50) is over 10000 nM. On to `O=C(COc1ccc(Cl)cc1)NCc1ccc(CNC(=O)COc2ccc(Cl)cc2)cc1` [compound 874796], for which the concentration for half-maximal inhibition (IC50) was over 10000 nM.

For `O=C(COc1ccc(Cl)cc1)N[C@H]1C[C@H](NC(=O)CSc2ccc(Cl)cc2)C1` [compound 811771], the IC50 was over 10000 nM. In the case of `O=C(COc1ccc(Cl)cc1)Nc1ccc(NC(=O)COc2ccc(Cl)cc2)cc1` [compound 102509], the half-inhibitory concentration (IC50) is 53 nM.

`O=C(COc1ccc(C(F)(F)F)cc1)N[C@H]1CC[C@H](NC(=O)COc2ccc(C(F)(F)F)cc2)CC1` [compound 754127]: the half-inhibitory concentration (IC50) was determined as 13 nM.

In the case of `Cc1ccc(OCC(=O)N[C@H]2CC[C@H](NC(=O)COc3ccc(C)cc3)CC2)cc1` [compound 754126], the 50% inhibitory concentration (IC50) came out at 327 nM. Consider `O=C(COc1ccc(Cl)cc1)NCc1cccc(NC(=O)COc2ccc(Cl)cc2)c1` [compound 873882], for which the IC50 is over 10000 nM.

As for `C#Cc1ccc(OCC(=O)N[C@H]2CC[C@H](NC(=O)COc3ccc(C4(C(F)(F)F)N=N4)cc3)CC2)cc1` [compound 916751], the half-inhibitory concentration (IC50) was over 10000 nM. Same read-out and setting: under `O=C(COc1ccc(Cl)cc1)N[C@H]1C[C@H](NC(=O)COc2ccc(Cl)cc2)C1` [compound 755855] stands 142 nM; under `O=C(NCc1ccc(CNC(=O)Oc2ccc(Cl)cc2)cc1)Oc1ccc(Cl)cc1` [compound 885254], over 10000 nM; under `O=C(Cc1ccc(Cl)cc1)NC[C@H]1CC[C@H](NC(=O)COc2ccc(Cl)cc2)CC1` [compound 885256], 152 nM. Turning to `C[C@@H]1NC(=O)N[C@@H]1CCCCCC(=O)NCCOCCOCCOCCn1cc(-c2cc(OCC(=O)N[C@H]3CC[C@H](NC(=O)COc4ccc(Cl)cc4)CC3)ccc2Cl)nn1` [compound 916728], the half-maximal inhibitory concentration (IC50) stood at 1270 nM. Turning to `O=C(CCCC[C@H]1SCC2NC(=O)NC21)NCCOCCOCCOCCn1cc([C@]2(NC(=O)COc3ccc(Cl)cc3)CC[C@H](NC(=O)COc3ccc(Cl)cc3)CC2)nn1` (stereo partly shown) [compound 835087], the half-inhibitory concentration (IC50) was determined as 2700 nM. Still for that read-out and setting: then `C#Cc1ccc(OCC(=O)N[C@H]2CC[C@H](NC(=O)COc3ccc(C#C)cc3)CC2)cc1` [compound 916786], with 158 nM. Same read-out and setting: then `O=C(COc1ccc(Cl)cc1)N[C@H]1CC[C@H](NC(=O)OCc2ccc(Cl)cc2)CC1` [compound 874797], with 122 nM. Consider `C[Si](C)(C)C#Cc1cc(OCC(=O)N[C@H]2CC[C@H](NC(=O)COc3ccc(Cl)cc3)CC2)ccc1Cl` [compound 914583], for which the IC50 worked out at 12 nM. Turning to `O=C(COc1ccc(Cl)c(C(F)(F)F)c1)N[C@H]1CC[C@H](NC(=O)COc2ccc(Cl)c(C(F)(F)F)c2)CC1` [compound 957887], the IC50 was 11 nM. Turning to `O=C(COc1ccc(Cl)cc1)N[C@H]1CC[C@H](NC(=O)COc2ccc(Cl)cc2)CC1` [750213.2], the IC50 was found to be 3 nM.

The same test, now with this note: Homo sapiens, HEK-293T, read-out: IC50 (nM) Cell-luc.
`O=C(COc1ccc(I)cc1)N[C@H]1CC[C@H](NC(=O)COc2ccc(C3(C(F)(F)F)NN3)cc2)CC1` [compound 916744]: the half-inhibitory concentration (IC50) is over 10000 nM.

The test is the same for the next values; noted with them: cultured HEK293T cells; 2 μg/ml tunicamycin, 7 h; synthesized isomers; read-out: IC50, inhibition of the ATF4-luciferase reporter.
As for `O=C(COc1ccc(Cl)cc1)N[C@H]1CC[C@@H](NC(=O)COc2ccc(Cl)cc2)CC1` [cis-ISRIB, 2-(4-chlorophenoxy)-N-[(1s, 4s)-4-[2-(4-chlorophenoxy)acetamido]cyclohexyl]acetamide], the IC50 is 600 nM.
